{"source": "patent US20050203119A1", "about": "“Dihydropyridine compounds for treating or preventing metabolic disorders” (priority 2003, published 2005)", "key": {"[1]": {"test_system": "Male ZDF rats (ZDF/GmiCrl-fa/fa)", "experiment": "Seven day baseline glucose study in fed ZDF rats (Example 124, FIG. 9)", "type": "in vivo, rat", "conditions": "oral once daily 7 days", "protocol": "To determine the effect of a test compound on blood glucose levels in fed and fasted diabetic rats, a 7DBG study was conducted, followed immediately by an 8th day of dosing and an OGTT study on the same animals. Male ZDF rats (ZDF/GmiCrl-fa/fa), homozygous for a mutation in the gene encoding the leptin receptor, were purchased from Charles River Laboratories (Wilmington, Mass., USA). Animals were individually housed in clear polycarbonate cages (contact bedding) on a 12 hr/12 hr light/dark cycle, acclimated for at least one week prior to use and fed normal laboratory chow (Purina No. 5008) ad libitum. Studies were conducted with animals starting between eleven and twelve weeks of age. Animals were used for a single study before being replaced.\nTo perform a 7DBG plus OGTT study, animals were bled by tail vein lancing on day 0, 24 hrs prior to the first drug dose on day 1, and blood glucose levels were measured by a hand-held glucometer. Animals were randomized into dosing groups of 6 animals, with each group having a similar starting average glucose level. […] Blood glucose levels were determined daily using a hand-held glucometer 3 hrs after the first dose on days 1 through 7.\nThe serum glucose levels on days 3 or 7 as a percent of the serum glucose levels on day 0 for individual animals in each group (6 rats/group), were calculated using Formula 3. […]"}, "[2]": {"test_system": "NIDDM male mice (C57BLKS/J-m+/+Lepr db)", "experiment": "7 day baseline glucose test in db/db mice (Example 119)", "type": "in vivo, mouse", "conditions": "for Serum Glucose % Pre-Treatment Baseline: 3 hours after dose", "protocol": "Non-insulin dependent diabetic mellitus (NIDDM) male mice (C57BLKS/J-m+/+Lepr db), weighing 50±5 g and 9-10-week old, were used. The animals were housed in Individually Ventilated Cages Racks (IVC Racks) throughout the experiment and all animals were allowed free access to sterilized Lab chow and sterilized distilled water. Compounds 39, 41 and 64 at 50 mg/kg as well as vehicle (0.5% Methylcellulose) were administered orally once daily for 7 consecutive days to test animals after the first blood sampling (pre-treatment). The post-treatment blood samples were withdrawn from the orbital sinus at 3 hours after administration of daily dose on day 3 and on day 7. Serum glucose levels in the pre- and post-treatment were determined by enzymatic (Mutaratase-GOD) methods. Post-treatment serum glucose values were expressed in percentage of respective pre-treatment values. Percentage reductions were expressed in percentage of pre-treatment values of test substance relative to percentage of pre-treatment values of vehicle. All percentages were calculated and unpaired; Student's t test was then applied to establish significant difference between the test compound-treated and vehicle control groups. Differences are considered significant at P<0.05."}, "Male SD rats": {"test_system": "Male SD rats", "conditions": "rat, in vivo", "protocol": "Male SD rats weighing 350-420 g were anesthetized with 2-3% isoflurane. The femoral artery and vein were catheterized and connected to a mean arterial blood pressure (MAP) and heart rate (HR) monitor and a continuous intravenous infusion pump. Under anesthesia, MAP and HR were recorded 10-20 minutes prior to and during the continuous intravenous infusion of test compounds for 60-70 minutes. The infusion rate, 0.14-0.16 ml/kg/minute, was determined on the basis of vehicle tolerance. The infusion doses, 1.0-1.25 mg/kg/minute, were selected, depending upon the solubility of the compound and effects on MAP and HR of the positive control compounds at the lethal dose. The maximal effective dose or lethal dose of test compounds were determined accordingly."}, "Lepr db mice": {"test_system": "Lepr db mice", "experiment": "Oral glucose tolerance test in Lepr db mice (Example 120)", "type": "in vivo, mouse", "protocol": "Compound 39 (25, 50 and 100 mg/kg) and vehicle (0.5% Methylcellulose) were administered orally at one hour before glucose loading (2 g/kg, PO) to Lepr db mice fasted for about 4 hours. Blood samples were collected sequentially from the retro-orbital sinus at pre-treatment one day before and about 1 and about 2 hours after glucose loading. Serum glucose values were obtained at about 1 and about 2 hours after glucose loading, percentage reductions were expressed as percentage of corresponding vehicle control values and unpaired Student's t test was then applied for comparison between test substance and vehicle group. Differences are considered significant at P<0.05 level."}, "[3]": {"test_system": "male db/db mice (BKS.Cg-m+/+Lepr db/J)", "experiment": "Intraperitoneal glucose tolerance test (IPGTT) in db/db mice (Example 122, FIGS. 3 and 5)", "type": "in vivo, mouse", "conditions": "IPGTT", "method": "Six to eight week old, male db/db mice (BKS.Cg-m+/+Lepr^db/J; stock number 000642), homozygous for a mutation in the gene encoding the leptin receptor, were purchased from The Jackson Laboratory (Bar Harbor, Me. USA). Animals were singly housed in conventional caging on a 12 hr/12 hr light/dark cycle, acclimated for at least five days prior to use and fed normal laboratory chow ad libitum between experiments. Studies were conducted with animals between seven and fourteen weeks of age. Animals were used for a maximum of five consecutive studies, with a minimum recovery period of five days between studies.\nTo perform an IPGTT or OGTT, db/db mice were fasted overnight beginning on day 0 at −17.5 to −18.5 hrs relative to the glucose dose on day 1 (all time points below are stated relative to the time of an intraperitoneal or oral glucose dose on day 1). At −4.5 hrs, animals were weighed, blood was collected by tail vein lancing and fasted blood glucose levels determined using a hand-held glucometer (MediSense Precision Xtra or LifeScan OneTouch Ultra). Animals were randomized into dosing groups of 6-7 animals, with each group having a similar average fasted blood glucose level. At −3 hr, animals were dosed with vehicle alone, a test compound or metformin by oral gavage at 5 ml/kg body weight. […] Blood glucose levels were determined as above at −45 min and +45 min, and also +90 min and/or +150 min (see FIG. 3 and the Table in this section). Alternatively, blood glucose levels were determined at −30 min, +30 min, +60 min and +120 min (see FIGS. 4 and 5).\nCompound doses were adjusted to be the molar equivalents of 50 mg/kg of Compound 39. The percent change in blood glucose between −45 min and a time point, y, after glucose dosing (e.g., +45 min, +150 min, ect.) was calculated for each animal using formula 1: [formula]\nThe percent change in blood glucose between −45 min and a time point, y, after glucose dosing was calculated for each animal using formula 1.\nAverage percent change in glucose intolerance was calculated using Formula 2, as noted in the table below. […]"}, "[4]": {"conditions": "Day 3, 50 mg/kg orally once daily"}, "[5]": {"conditions": "Day 7, 50 mg/kg orally once daily"}}}
{"compound": "CCOC(=O)C1=C(COCCN)NC2=C(C(=O)CC(C)(C)C2)C1c1cccnc1", "note": "(stereo not drawn) [Compound 39, 2-(2-Amino-ethoxymethyl)-7,7-dimethyl-5-oxo-4-pyridin-3-yl-1,4,5,6,7,8-hexahydro-quinoline-3-carboxylic acid ethyl ester]", "values": [{"measurement": "glucose lowering activities of metformin in combination with Compound 39 (FIG. 9)", "setting": "[1]", "result": "enhanced"}, {"measurement": "serum glucose (FIG. 9)", "setting": "[1]; Compound 39 alone", "result": "decreased serum glucose"}, {"measurement": "serum glucose % Reduction relative to vehicle", "setting": "[2]; [4]", "result": "(3) %"}, {"measurement": "Serum Glucose % Pre-Treatment Baseline", "setting": "[2]; [4]", "result": 98.5, "unit": "%"}, {"measurement": "serum glucose % Reduction relative to vehicle", "setting": "[2]; [5]", "result": "(18) %"}, {"measurement": "Serum Glucose % Pre-Treatment Baseline", "setting": "[2]; [5]", "result": 82.3, "unit": "%"}, {"measurement": "Lethal Dose", "setting": "Male SD rats", "result": ">70", "unit": "mg/kg"}, {"measurement": "Serum Glucose", "setting": "Lepr db mice; 0 hr (pre-treatment one day before), 25 mg/kg group", "result": "375.9 ± 16.3", "unit": "mg/dL"}, {"measurement": "Serum Glucose", "setting": "Lepr db mice; 0 hr (pre-treatment one day before), 50 mg/kg group", "result": "371.1 ± 15.2", "unit": "mg/dL"}, {"measurement": "Serum Glucose", "setting": "Lepr db mice; 0 hr (pre-treatment one day before), 100 mg/kg group", "result": "340.7 ± 14.2", "unit": "mg/dL"}, {"measurement": "Serum Glucose", "setting": "Lepr db mice; 1 hr after glucose loading (2 g/kg PO), 25 mg/kg orally", "result": "379.3 ± 18.5", "unit": "mg/dL"}, {"measurement": "Serum Glucose", "setting": "Lepr db mice; 1 hr after glucose loading (2 g/kg PO), 50 mg/kg orally", "result": "415.6 ± 11.0", "unit": "mg/dL"}, {"measurement": "Serum Glucose", "setting": "Lepr db mice; 1 hr after glucose loading (2 g/kg PO), 100 mg/kg orally", "result": "366.2 ± 17.3", "unit": "mg/dL"}, {"measurement": "serum glucose % Reduction relative to vehicle", "setting": "Lepr db mice; 1 hr after glucose loading, 25 mg/kg orally", "result": "(19.3) %"}, {"measurement": "serum glucose % Reduction relative to vehicle", "setting": "Lepr db mice; 1 hr after glucose loading, 50 mg/kg orally", "result": "(11.6) %"}, {"measurement": "serum glucose % Reduction relative to vehicle", "setting": "Lepr db mice; 1 hr after glucose loading, 100 mg/kg orally", "result": "(22.1) %"}, {"measurement": "Serum Glucose", "setting": "Lepr db mice; 2 hr after glucose loading (2 g/kg PO), 25 mg/kg orally", "result": "331.1 ± 14.5", "unit": "mg/dL"}, {"measurement": "Serum Glucose", "setting": "Lepr db mice; 2 hr after glucose loading (2 g/kg PO), 50 mg/kg orally", "result": "346 ± 16.8", "unit": "mg/dL"}, {"measurement": "Serum Glucose", "setting": "Lepr db mice; 2 hr after glucose loading (2 g/kg PO), 100 mg/kg orally", "result": "301.3 ± 28.4", "unit": "mg/dL"}, {"measurement": "serum glucose % Reduction relative to vehicle", "setting": "Lepr db mice; 2 hr after glucose loading, 25 mg/kg orally", "result": "(11.8) %"}, {"measurement": "serum glucose % Reduction relative to vehicle", "setting": "Lepr db mice; 2 hr after glucose loading, 50 mg/kg orally", "result": "(7.8) %"}, {"measurement": "serum glucose % Reduction relative to vehicle", "setting": "Lepr db mice; 2 hr after glucose loading, 100 mg/kg orally", "result": "(19.7) %"}, {"measurement": "glucose intolerance relative to vehicle-treated animals (FIG. 5)", "setting": "[3]; Compound 39 orally dosed alone", "result": "decreased"}, {"measurement": "effect of metformin on glucose intolerance in combination with Compound 39 (FIG. 5)", "setting": "[3]; Compound 39 orally in combination with metformin", "result": "enhanced"}]}
